For one experiment, the target named is T1, Aurora-A kinase (Homo sapiens, UniProt O14965).
T1 construct: purchased Invitrogen (Carlsbad, CA, USA)
T1 sequence (O14965 1-403): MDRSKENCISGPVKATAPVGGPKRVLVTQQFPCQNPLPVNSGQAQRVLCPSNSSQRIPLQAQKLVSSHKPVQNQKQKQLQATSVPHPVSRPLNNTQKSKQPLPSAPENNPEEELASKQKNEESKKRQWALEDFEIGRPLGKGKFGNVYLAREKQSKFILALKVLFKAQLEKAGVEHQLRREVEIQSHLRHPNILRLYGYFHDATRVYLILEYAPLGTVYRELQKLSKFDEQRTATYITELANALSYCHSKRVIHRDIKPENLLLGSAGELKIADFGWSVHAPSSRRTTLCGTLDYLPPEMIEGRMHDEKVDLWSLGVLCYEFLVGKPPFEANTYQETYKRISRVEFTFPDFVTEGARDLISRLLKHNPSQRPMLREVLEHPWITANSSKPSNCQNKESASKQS
The experiment in a line: FRET-based Z'-LYTE kinase enzyme inhibition assay. Type of experiment: biochemical. As to conditions: 10 µM, duplicates, Z'-LYTE.
Description: This bioassay was conducted using Z′-LYTE® kinase assay (Invitrogen, Carlsbad, CA, USA) [68, 69]. This biochemical assay depends on fluorescence emission as detection method utilizing a synthetic fluorescence resonance energy transfer (FRET) peptide with two fluorophores: coumarin that work as donor and fluorescein as acceptor [69]. Each hit or compound was dissolved in DMSO to form 10 mM stock solution. Hits were screened at 10 μM concentration. The bioassay was performed in black 384-well plate. For each assay, 100 nL of tested compound stock solution (10 mM) was mixed with 2.4 μL kinase buffer, 5 μL (peptide substrate/Aurora-A Kinase) mixture, and 2.5 μL ATP solution.
The tests were conducted in duplicates.
As usually defined, the % Inhibition is the relative decrease from the control value, in per cent. Consider `COc1ccc(-c2oc3ccc(C)cc3c(=O)c2O)cc1` [Hit 80], for which the “% Inhibition at 10 µM” value is on record as 20%.

Turning to `CCCCN[C@@H](c1ccc(OC)cc1)[C@H](O)c1ccc(OC)cc1` [Hit 81], the “% Inhibition at 10 µM” value was found to be 3%.

Turning to `COc1ccc(/C=N/N=C/c2ccc(OC)cc2)cc1` [Hit 82], the “% Inhibition at 10 µM” value came out at 5%.

On to `CC(Cc1ccccc1)=NNS(=O)(=O)c1ccc([N+](=O)[O-])cc1` [Hit 83], for which the “% Inhibition at 10 µM” value was 7%.

On to `CC(=NNS(=O)(=O)c1ccc([N+](=O)[O-])cc1)c1ccc(C)cc1` [Hit 86], for which the “% Inhibition at 10 µM” value is 12%.

Consider `O=C(NCCc1ccccc1)c1ccc([N+](=O)[O-])cc1` [Hit 87], for which the “% Inhibition at 10 µM” value is listed as -4%.

As for `COc1ccc(C=NNS(=O)(=O)c2ccc(NC(C)=O)cc2)cc1` [Hit 89], the “% Inhibition at 10 µM” value was determined as 2%.

With `COc1ccc(C(=O)OCc2ccc3c(c2)OCO3)cc1` [Hit 90], the “% Inhibition at 10 µM” value is reported as -2%.

In the case of `CCNC(Cc1ccc(OC)cc1)c1ccc(OC)cc1` (stereo not drawn) [Hit 91], the “% Inhibition at 10 µM” value is on record as -2%.

Consider `COc1ccc(C(Cc2ccc(Cl)cc2)NCCO)cc1` (stereo not drawn) [Hit 92], for which the “% Inhibition at 10 µM” value is recorded as 3%.

For the compound `COc1ccc2c(ccc[n+]2CC(=O)c2ccc(SC)cc2)c1` [Hit 93], the “% Inhibition at 10 µM” value came out at 14%.

As for `COc1ccc(C(=O)OCc2ccc3c(c2)OCO3)cc1` [Hit 94], the “% Inhibition at 10 µM” value was -2%.

Regarding `COc1ccc(CC(C)NCC(O)c2ccc(O)c(O)c2)cc1` (stereo not drawn) [Hit 95], the “% Inhibition at 10 µM” value worked out at 30%.

On to `COc1cccc(/C=C/C(=O)/C=C/C=C/c2ccccc2)c1` [Hit 96], for which the “% Inhibition at 10 µM” value was found to be 0%.

On to `CCOC(=O)C(=Cc1cc(C)c(OC(C)=O)c(OC)c1)NC(=O)c1ccccc1` [Hit 97], for which the “% Inhibition at 10 µM” value is listed as -4%.

With `COc1ccc(CCc2ccc3cc(OC)ccc3n2)cc1` [Hit 98], the “% Inhibition at 10 µM” value was -5%.

For `COc1ccc(C(=O)OCc2ccc3c(c2)OCO3)cc1` [Hit 99], the “% Inhibition at 10 µM” value is listed as 5%.

Consider `COc1ccc(CNCCNCc2ccc(OC)cc2)cc1` [Hit 100], for which the “% Inhibition at 10 µM” value amounted to 7%.

With `COc1ccc(NC(=O)CC(=O)Nc2ccc(OC)cc2)cc1` [Hit 101], the “% Inhibition at 10 µM” value is 6%.

Consider `CC(=O)Nc1ccc(S(=O)(=O)NN=Cc2ccc(C)cc2)cc1` [Hit 102], for which the “% Inhibition at 10 µM” value came to 6%.

`CC(=O)Nc1ccc(S(=O)(=O)NN=Cc2cc(Cl)ccc2O)cc1` [Hit 103]: the “% Inhibition at 10 µM” value was determined as 12%.

For `NC[C@@H](O)c1ccc(Nc2ccnc3cc(Cl)ccc23)cc1` [Hit 104], the “% Inhibition at 10 µM” value is 23%.

As to `COc1ccc(C(=O)[C@H](CN(C)C)c2ccc(OC)cc2)cc1` [Hit 105], the “% Inhibition at 10 µM” value is reported as 1%.

Take `Cc1ccc[n+](CC(=O)c2ccc([N+](=O)[O-])cc2)c1` [Hit 106]: the “% Inhibition at 10 µM” value was 6%.

Take `CC(Cc1ccccc1)NCC(=O)c1ccc(O)c(O)c1` (stereo not drawn) [Hit 107]: the “% Inhibition at 10 µM” value turned out to be 25%.

For `COc1ccc(NC(=O)c2ccc(Cl)cc2Cl)cc1` [Hit 108], the “% Inhibition at 10 µM” value is listed as -7%.

For the compound `COc1ccc(C(=O)Oc2ccc(C=O)cc2OC)cc1` [Hit 109], the “% Inhibition at 10 µM” value is recorded as -142%.

For the compound `CCOc1ccc(N=C(C)Nc2ccc(OCC)cc2)cc1` [Hit 110], the “% Inhibition at 10 µM” value turned out to be 3%.

Turning to `C[n+]1c(/C=C/c2ccc([N+](=O)[O-])cc2)oc2ccccc21` [Hit 111], the “% Inhibition at 10 µM” value turned out to be 1%.

For `COc1ccc(C(=O)C=Cc2ccc3c(c2)OCO3)cc1` [Hit 113], the “% Inhibition at 10 µM” value is 8%.

As to `COc1ccc(C(=O)CCCCC(=O)c2ccc(OC)cc2)cc1` [Hit 114], the “% Inhibition at 10 µM” value is listed as 4%.

Regarding `COc1ccc(CCCCCCc2ccc(OC)cc2)cc1` [Hit 115], the “% Inhibition at 10 µM” value was -1%.

Regarding `NOS(=O)c1ccc(N=CC=Cc2ccccc2)cc1` (stereo not drawn) [Hit 116], the “% Inhibition at 10 µM” value came to 21%.

On to `COc1ccc(CC(=O)c2ccc(OC)c(OC)c2)cc1OC` [Hit 117], for which the “% Inhibition at 10 µM” value amounted to 7%.

Turning to `O=[N+]([O-])c1cccc(S(=O)(=O)Nc2ccc(Cl)cc2)c1` [Hit 118], the “% Inhibition at 10 µM” value came to 7%.

With `CC[C@@H](C(=O)c1ccc(OC)cc1)c1ccc(OC)cc1` [Hit 119], the “% Inhibition at 10 µM” value is -3%.

Turning to `COc1ccc(C[N+](C)(C)Cc2ccc(OC)cc2)cc1` [Hit 120], the “% Inhibition at 10 µM” value is on record as -2%.

With `COc1ccc(C=Cc2ccc3ccccc3n2)cc1` [Hit 121], the “% Inhibition at 10 µM” value is -2%.

Regarding `COc1ccc(CCC(N)c2ccc(OC)cc2)cc1` (stereo not drawn) [Hit 122], the “% Inhibition at 10 µM” value is on record as -1%.

`COc1cccc(C(N)CCc2cc(OC)c(OC)c(OC)c2)c1` (stereo not drawn) [Hit 124]: the “% Inhibition at 10 µM” value was -2%.

As to `CCOc1ccc(NC(=O)Nc2ccc(OCC)cc2)cc1` [Hit 125], the “% Inhibition at 10 µM” value is -1%.

On to `CCC(=Cc1ccc(OC)cc1)C(=O)c1ccc(OC)cc1` [Hit 126], for which the “% Inhibition at 10 µM” value is reported as -2%.

Consider `COc1ccc(OC(=O)c2ccc(Cl)cc2)cc1` [Hit 127], for which the “% Inhibition at 10 µM” value was found to be 0%.

In the case of `COc1ccc(C=Cc2ccc(Cl)cc2)cc1` [Hit 128], the “% Inhibition at 10 µM” value was -5%.

For `COc1ccc(C=NCCN=Cc2ccc(OC)cc2)cc1` [Hit 129], the “% Inhibition at 10 µM” value is reported as 3%.

Regarding `O=C(OCC=Cc1ccccc1)c1ccc([N+](=O)[O-])cc1` [Hit 131], the “% Inhibition at 10 µM” value is reported as 3%.

As for `Cc1ccc(S(=O)(=O)Nc2ccc3cc([N+](=O)[O-])ccc3c2[N+](=O)[O-])cc1` [Hit 132], the “% Inhibition at 10 µM” value came to 22%.

Take `COc1ccc(C2OC(c3ccc(OC)cc3)c3ccccc32)cc1` (stereo not drawn) [Hit 133]: the “% Inhibition at 10 µM” value came to 3%.

With `COc1ccc(N=Nc2ccc(OC)cc2)cc1` [Hit 134], the “% Inhibition at 10 µM” value is reported as 8%.

On to `COc1ccc(/N=N/c2ccc(O)cc2)cc1` [Hit 135], for which the “% Inhibition at 10 µM” value is listed as 7%.

As to `O=[N+]([O-])c1ccc(S(=O)(=O)NN=Cc2ccco2)cc1` [Hit 136], the “% Inhibition at 10 µM” value was 5%.

Consider `O=C(Oc1ccc(Cl)cc1Cl)c1ccc([N+](=O)[O-])cc1` [Hit 137], for which the “% Inhibition at 10 µM” value is -30%.

Turning to `COc1ccc(NC(=O)c2ccc(Cl)cc2)cc1` [Hit 138], the “% Inhibition at 10 µM” value is given as -1%.

Consider `O=C(NC(Cc1ccc2c(c1)OCO2)C(=O)O)c1ccccc1` (stereo not drawn) [Hit 139], for which the “% Inhibition at 10 µM” value came out at 6%.

Consider `COc1ccc([C@@H](O)Cc2ccc(Cl)cc2)cc1` [Hit 140], for which the “% Inhibition at 10 µM” value was -7%.

`O=[N+]([O-])c1ccc(COc2ccc(Cl)cc2)cc1` [Hit 142]: the “% Inhibition at 10 µM” value is on record as -3%.

As to `CN(C)CC(O)c1ccc(C=Cc2ccc(Cl)cc2)cc1` (stereo not drawn) [Hit 143], the “% Inhibition at 10 µM” value was -72%.

As for `CCCCNC(C(=O)c1ccc(OC)cc1)c1ccc(OC)cc1` (stereo not drawn) [Hit 144], the “% Inhibition at 10 µM” value is 0%.

Take `COc1ccc(C(N)C(O)c2ccc(OC)cc2)cc1` (stereo not drawn) [Hit 145]: the “% Inhibition at 10 µM” value is given as 0%.

In the case of `Cc1cc[n+](CC(=O)c2ccc([N+](=O)[O-])cc2)cc1` [Hit 146], the “% Inhibition at 10 µM” value was found to be 4%.

In the case of `O=C(CNCCCc1ccccc1)c1ccc(O)c(O)c1` [Hit 147], the “% Inhibition at 10 µM” value worked out at 14%.

For `COc1ccc(N=[N+]([O-])c2ccc(OC)cc2)cc1` [Hit 148], the “% Inhibition at 10 µM” value is reported as -3%.

In the case of `COc1ccc(C(=O)C(O)c2ccc(OC)cc2)cc1` (stereo not drawn) [Hit 149], the “% Inhibition at 10 µM” value is on record as -1%.

On to `COc1ccc(CC(=O)c2ccc(OC)cc2)cc1` [Hit 150], for which the “% Inhibition at 10 µM” value is on record as -3%.

Regarding `Oc1ccc(/C=C/c2ccc(Cl)cc2)cc1` [Hit 151], the “% Inhibition at 10 µM” value was -7%.

As for `COc1cccc(CC(C)NCC(O)c2ccc(O)c(O)c2)c1` (stereo not drawn) [Hit 152], the “% Inhibition at 10 µM” value was determined as 1%.

Take `O=C(CCCc1ccc([N+](=O)[O-])cc1)c1ccccc1` [Hit 153]: the “% Inhibition at 10 µM” value was -6%.

Turning to `CNC(Cc1ccc(OC)cc1)c1ccc(OC)cc1` (stereo not drawn) [Hit 154], the “% Inhibition at 10 µM” value was -2%.

The target of a further experiment is T1, Aurora-A kinase.
Assay: not given
As to conditions: Table S1, ChEMBL; ref Mortlock, et al., 2007; cited from earlier work.
Broadly, the Ki is the equilibrium dissociation constant of an inhibitor or competing ligand from its target. For the compound `COc1cc2c(Nc3cc(CC(=O)Nc4ccccc4)[nH]n3)ncnc2cc1OCCCN1CCC(CO)CC1` [Compound 1], the Ki was 1600 nM.

As for `COc1cc2c(Nc3cc(CC(=O)Nc4ccccc4F)[nH]n3)ncnc2cc1OCCCN1CCC(CO)CC1` [Compound 2], the Ki was 1400 nM.

For `COc1cc2c(Nc3cc(CC(=O)Nc4ccc(F)cc4)[nH]n3)ncnc2cc1OCCCN1CCC(CO)CC1` [Compound 4], the Ki is 2000 nM.

Consider `COc1cc2c(Nc3cc(CC(=O)Nc4cccc(F)c4F)[nH]n3)ncnc2cc1OCCCN1CCC(CO)CC1` [Compound 5], for which the Ki was 410 nM.

`COc1cc2c(Nc3cc(CC(=O)Nc4cc(F)cc(F)c4)[nH]n3)ncnc2cc1OCCCN1CCC(CO)CC1` [Compound 6]: the Ki was 230 nM.

In the case of `COc1cc2c(Nc3cc(CC(=O)Nc4cccc(Cl)c4)[nH]n3)ncnc2cc1OCCCN1CCC(CO)CC1` [Compound 7], the Ki was 450 nM.

Turning to `COc1cc2c(Nc3cc(CC(=O)Nc4cccc(C#N)c4)[nH]n3)ncnc2cc1OCCCN1CCC(CO)CC1` [Compound 8], the inhibition constant (Ki) is 2600 nM.

Consider `COc1cc2c(Nc3cc(CC(=O)Nc4cccc(O)c4)[nH]n3)ncnc2cc1OCCCN1CCC(CO)CC1` [Compound 9], for which the Ki was 4000 nM.

With `COc1cccc(NC(=O)Cc2cc(Nc3ncnc4cc(OCCCN5CCC(CO)CC5)c(OC)cc34)n[nH]2)c1` [Compound 10], the inhibition constant Ki was 1900 nM.

`COc1cc2c(Nc3cc(CC(=O)Nc4cccc(C(F)(F)F)c4)[nH]n3)ncnc2cc1OCCCN1CCC(CO)CC1` [Compound 11]: the Ki is 510 nM.

The values are drawn from paper PMC7766225, “Structure-Based Discovery and Bioactivity Evaluation of Novel Aurora-A Kinase Inhibitors as Anticancer Agents via Docking-Based Comparative Intermolecular Contacts Analysis (dbCICA)” (Molecules, 2020).
